{
  "source": "paper PMC3502511",
  "about": "“Inhibition of the Prokaryotic Pentameric Ligand-Gated Ion Channel ELIC by Divalent Cations” (PLoS Biology, 2012)",
  "type_in_all_cases": "cell-based, Erwinia chrysanthemi",
  "key": {"ELIC R91A": {"biological_target": "T1, ELIC R91A (Dickeya chrysanthemi, UniProt P0C7B7, INS163G/R91A)", "T1 construct": "expressed in transfected cells; host or cells: X. laevis oocytes", "assay": "Two-electrode voltage clamp, ELIC R91A in oocytes", "description": "(§1) Constructs containing the gene of either the WT or mutant channels preceded by the signal sequence of the chicken α7nAchR were cloned into the pTLN vector for expression in X. laevis oocytes. After linearization of the plasmid DNA by MluI, capped complementary RNA was transcribed with the mMessage mMachine kit (Ambion) and purified with the RNeasy kit (Qiagen). For expression, 1–50 ng of RNA was injected into defolliculated oocytes. Two-electrode voltage clamp measurements were performed 1 d after injection at 20°C (OC-725B, Warner Instrument Corp.). Currents were recorded in bath solutions containing 10 mM HEPES (pH 7), 130 mM NaCl, and the indicated concentrations of cysteamine and divalent cations. In case of solutions containing Zn^2+, cysteamine was replaced by propylamine. The membrane potential in all dose–response measurements was set to −40 mV. As ELIC is permeable to divalent cations, we tested if endogenous calcium-activated chloride channels affected our measurements. To chelate intracellular calcium ions, the oocytes were incubated for 15 to 30 min in bath solutions lacking divalent ions but containing 10 µM BAPTA-AM."}, "ELIC WT": {"biological_target": "T2, ELIC WT (Dickeya chrysanthemi, UniProt P0C7B7, INS163G)", "T2 construct": "expressed in transfected cells; host or cells: X. laevis oocytes (cRNA injection, pTLN vector)", "assay": "cell-based", "settings": "Ki app, Schild analysis", "description": "as §1"}, "ELIC D113A/D158A": {"biological_target": "T3, ELIC D113A/D158A (Dickeya chrysanthemi, UniProt P0C7B7, D113A/D158A/INS163G)", "T3 construct": "expressed in transfected cells; host or cells: X. laevis oocytes", "assay": "cell-based", "description": "as §1"}},
  "data": [
    {"smiles": "CC(=O)OCC[N+](C)(C)C", "note": "[ACh, acetylcholine]", "values": [
      {"measurement": "Ki", "setting": "ELIC R91A", "result": 0.17, "unit": "mM"},
      {"measurement": "Ki", "setting": "ELIC WT; WT/1 mM Ca^2+", "result": 2.2, "unit": "mM"},
      {"measurement": "Ki", "setting": "ELIC WT; WT/.25 mM Ca^2+", "result": 1.2, "unit": "mM"},
      {"measurement": "Ki", "setting": "ELIC WT; WT/.5 mM Ca^2+", "result": 1.3, "unit": "mM"},
      {"measurement": "Ki", "setting": "ELIC WT; WT, agonist cysteamine", "result": 1.6, "unit": "mM"},
      {"measurement": "Ki", "setting": "ELIC D113A/D158A", "result": 2.1, "unit": "mM"}
    ]}
  ]
}
